Laboratory results taken from patent US20220380338A1, “CYCLOALKYL 3-OXOPIPERAZINE CARBOXAMIDES AND CYCLOHETEROALKYL 3-OXOPIPERAZINE CARBOXAMIDES AS NAV1.8 INHIBITORS” (Merck Sharp & Dohme LLC, priority 2021, published 2022).

biological target: T1, human NaV1.8 (Homo sapiens, UniProt Q9Y5Y9); assay: Nav1.8 Qube® Assay (automated 384-well patch-clamp, inhibition of sodium current); format: cell-based; settings: human NaV1.8 channels stably expressed in HEK 293 cells, room temperature
T1 construct: expressed in transfected cells
T1 sequence (Q9Y5Y9 whole entry): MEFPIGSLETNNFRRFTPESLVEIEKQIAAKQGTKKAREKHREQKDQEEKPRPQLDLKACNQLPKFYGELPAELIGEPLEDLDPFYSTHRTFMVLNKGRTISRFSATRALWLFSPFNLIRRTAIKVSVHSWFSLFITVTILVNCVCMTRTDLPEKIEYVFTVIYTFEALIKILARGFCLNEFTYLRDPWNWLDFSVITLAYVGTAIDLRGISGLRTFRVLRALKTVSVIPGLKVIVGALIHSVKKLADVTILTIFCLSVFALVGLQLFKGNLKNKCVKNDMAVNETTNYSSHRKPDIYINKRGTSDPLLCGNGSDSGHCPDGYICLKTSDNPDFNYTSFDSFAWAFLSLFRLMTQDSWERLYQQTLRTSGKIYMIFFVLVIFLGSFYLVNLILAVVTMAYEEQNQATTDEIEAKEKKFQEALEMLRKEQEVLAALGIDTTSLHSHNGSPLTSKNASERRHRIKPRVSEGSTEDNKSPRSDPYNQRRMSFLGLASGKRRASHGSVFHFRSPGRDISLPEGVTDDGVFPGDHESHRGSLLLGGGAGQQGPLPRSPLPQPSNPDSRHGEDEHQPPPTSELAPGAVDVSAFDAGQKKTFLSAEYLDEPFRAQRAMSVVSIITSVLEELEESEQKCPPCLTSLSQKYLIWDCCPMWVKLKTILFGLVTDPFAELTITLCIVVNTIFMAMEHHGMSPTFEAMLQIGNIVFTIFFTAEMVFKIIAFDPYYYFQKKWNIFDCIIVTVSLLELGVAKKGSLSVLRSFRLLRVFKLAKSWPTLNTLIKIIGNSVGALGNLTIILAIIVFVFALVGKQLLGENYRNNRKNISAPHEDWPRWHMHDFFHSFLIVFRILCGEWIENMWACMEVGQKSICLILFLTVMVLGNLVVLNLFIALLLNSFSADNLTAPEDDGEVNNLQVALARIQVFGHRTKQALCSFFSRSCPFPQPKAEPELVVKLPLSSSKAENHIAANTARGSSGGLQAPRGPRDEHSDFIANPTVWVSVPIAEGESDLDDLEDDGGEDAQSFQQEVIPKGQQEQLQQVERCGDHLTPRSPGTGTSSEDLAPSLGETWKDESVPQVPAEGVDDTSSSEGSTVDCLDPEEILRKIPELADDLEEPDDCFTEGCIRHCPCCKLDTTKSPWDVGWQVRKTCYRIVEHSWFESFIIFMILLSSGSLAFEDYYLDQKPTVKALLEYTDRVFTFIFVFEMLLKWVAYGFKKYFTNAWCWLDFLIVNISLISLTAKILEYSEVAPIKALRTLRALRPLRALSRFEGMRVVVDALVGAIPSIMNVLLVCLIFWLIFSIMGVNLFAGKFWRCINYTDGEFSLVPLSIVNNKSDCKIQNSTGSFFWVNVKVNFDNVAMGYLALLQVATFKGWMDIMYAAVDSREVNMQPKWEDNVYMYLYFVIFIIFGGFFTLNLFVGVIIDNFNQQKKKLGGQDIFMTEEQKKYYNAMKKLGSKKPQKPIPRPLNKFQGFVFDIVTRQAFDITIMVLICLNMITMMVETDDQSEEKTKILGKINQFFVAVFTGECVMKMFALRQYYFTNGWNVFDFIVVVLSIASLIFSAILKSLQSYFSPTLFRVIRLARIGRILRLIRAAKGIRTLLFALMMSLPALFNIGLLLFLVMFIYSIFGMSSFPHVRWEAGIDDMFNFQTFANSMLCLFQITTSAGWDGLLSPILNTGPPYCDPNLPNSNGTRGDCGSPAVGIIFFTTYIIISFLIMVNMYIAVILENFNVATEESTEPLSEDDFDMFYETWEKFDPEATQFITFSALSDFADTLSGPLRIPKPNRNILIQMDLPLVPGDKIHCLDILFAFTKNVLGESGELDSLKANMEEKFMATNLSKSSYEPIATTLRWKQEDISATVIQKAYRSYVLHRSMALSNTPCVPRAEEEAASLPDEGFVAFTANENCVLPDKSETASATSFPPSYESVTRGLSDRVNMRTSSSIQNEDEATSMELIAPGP
Description: Compounds were tested on human NaV1.8 and NaV1.5 channels stably expressed in human embryo kidney (HEK) 293 cells. Sodium current measurements on Qube® were conducted as follows: automated 384-well patch-clamp assays on the Qube® platform (Sophion Biosciences) were used to measure the inhibition of sodium flow through human NaV1.8 and NaV1.5 channels. Whole-cell voltage-clamp recordings were performed in QChips® (Sophion Biosciences) at room temperature. NaV1.8 current measurements on Qube® were obtained as follows: NaV1.8 currents were elicited with a 10 second 1 Hertz (Hz) pulse train from a holding potential of −90 millivolts (mV), delivered to the cells once per minute in the control condition (DMSO only) and after compound addition. The 1 hertz pulse train stimulation consisted of ten test pulses to 10 millivolt (mV) for 20 milliseconds (ms), each of which was followed by a 980 millisecond repolarization to −67 millivolts. At the end of the 10 second pulse train stimulation, a 5 second hyperpolarization step to −100 millivolt (mV) was used to recover NaV1.8 from fast inactivation. The peak currents elicited by the 1st and 10th test pulses were used to determine IC50 values for resting inhibition and inactivated state inhibition. NaV1.5 current measurements on Qube® were obtained as follows: NaV1.5 currents were elicited with a 20 second 3 Hertz pulse train in the control condition (DMSO only) and after compound addition. The pulse train consisted of sixty 20 millisecond test pulses to 0 millivolt from a holding potential of −80 millivolt (mV). The average peak currents elicited by the last 3 test pulses were used to determine IC50 values for NaV1.5 inhibition.
The following buffers were used for the Qube® recordings: External buffer for NaV1.8 Qube® recording: 150 NaCl, 2 CaCl2, 5 KCl, 1 Mg Cl2, 10 HEPES, 12 Dextrose; External buffer for Qube® NaV1.5 recording: 120 N-Methyl-D-Glucamine, 40 NaCl, 1 KCl, 2.7 CaCl2, 5 HEPES, 0.5 MgCl2; and Internal buffer for Qube® recording: 120 CsF, 30 CsCl, 10 EGTA, 5 HEPES, 5 NaF, 2 MgCl2.
For all Qube® experiments offline analysis was used to determine percent inhibition as a function of drug concentration. IC50 values were determined by fitting to the Hill equation.

| Structure (SMILES) | IC50 |
| --- | --- |
| O=C1CN(C(=O)N[C@H](c2ccc(F)c(Cl)c2)C2CCC(C(F)(F)F)CC2)CCN1 (single isomer, unassigned) [Example 1A] | 3.5 nM |
| O=C1CN(C(=O)N[C@H](c2ccc(F)c(Cl)c2)C2CCC(C(F)(F)F)CC2)CCN1 (single isomer, unassigned) [Example 1B] | 183 nM |
| O=C1CN(C(=O)NC(c2ccc(F)c(Cl)c2)C2CC3CCC(C2)C3(F)F)CCN1 (single isomer, unassigned) [Example 2A, N-((R or S)-(3-chloro-4-fluoro-phenyl)(8,8-difluoro-bicyclo[3.2.1]octan-3-yl)methyl)-3-oxopiperazine-1-carboxamide] | 65.5 nM |
| O=C1CN(C(=O)NC(c2ccc(F)c(Cl)c2)C2CC3CCC(C2)C3(F)F)CCN1 (single isomer, unassigned) [Example 2B, N-((S or R)-(3-chloro-4-fluoro-phenyl)(8,8-difluroo-bicyclo[3.2.1]octan-3-yl)methyl)-3-oxopiperazine-1-carboxamide] | 410 nM |
| C[C@@H]1C(=O)NCCN1C(=O)NC(c1ccc(F)c(Cl)c1)C1CC2CCC(C1)C2(F)F (single isomer, unassigned) [Example 3A, (2R)-N-((R or S)-(3-chloro-4-fluoro-phenyl)(8,8-difluoro-bicyclo[3.2.1]octan-3-yl)methyl)-2-methyl-3-oxo-piperazine-1-carboxamide] | 14.8 nM |
| C[C@@H]1C(=O)NCCN1C(=O)NC(c1ccc(F)c(Cl)c1)C1CC2CCC(C1)C2(F)F (single isomer, unassigned) [Example 3B, (2R)-N-((S or R)-(3-chloro-4-fluoro-phenyl)(8,8-difluoro-bicyclo[3.2.1]octan-3-yl)methyl)-2-methyl-3-oxo-piperazine-1-carboxamide] | 148 nM |
| O=C1CN(C(=O)N[C@H](c2ccc(Cl)cc2)C2CCC(C(F)(F)F)CC2)CCN1 (single isomer, unassigned) [Example 4A, N-((R or S)-(4-chlorophenyl)(trans-4-(trifluoromethyl)-cyclohexyl)methyl)-3-oxopiperazine-1-carboxamide] | 89.3 nM |
| O=C1CN(C(=O)N[C@H](c2ccc(Cl)cc2)C2CCC(C(F)(F)F)CC2)CCN1 (single isomer, unassigned) [Example 4B, N-((S or R)-(4-chlorophenyl)(trans-4-(trifluoromethyl)-cyclohexyl)methyl)-3-oxopiperazine-1-carboxamide] | 288 nM |

Continued, values first:

| IC50 | Structure (SMILES) |
| --- | --- |
| 40.9 nM | C[C@@H]1C(=O)NCCN1C(=O)N[C@H](c1ccc(F)c(Cl)c1)C1CCC(C(F)(F)F)CC1 (single isomer, unassigned) [Example 5A, (2R)-N-((R or S)-(3-chloro-4-fluoro-phenyl)(trans-4-(trifluoromethyl)cyclo-hexyl)methyl)-2-methyl-3-oxo-piperazine-1-carboxamide] |
| 4.2 nM | C[C@@H]1C(=O)NCCN1C(=O)N[C@H](c1ccc(F)c(Cl)c1)C1CCC(C(F)(F)F)CC1 (single isomer, unassigned) [Example 5B, (2R)-N-((S or R)-(3-chloro-4-fluoro-phenyl)(trans-4-(tri-fluoromethyl)cyclo-hexyl)methyl)-2-methyl-3-oxo-piperazine-1-carboxamide] |
| 232 nM | C[C@@H]1C(=O)NCCN1C(=O)NC(c1cc(F)c(F)c(F)c1)[C@H]1CC[C@H](C(F)(F)F)CC1 (single isomer, unassigned) [Example 6A, (R)-2-methyl-3-oxo-N-((R or S)-(trans-4-(trifluoromethyl)cyclo-hexyl)(3,4,5-tri-fluorophenyl)methyl) piperazine-1-carboxamide] |
| 35.4 nM | C[C@@H]1C(=O)NCCN1C(=O)NC(c1cc(F)c(F)c(F)c1)[C@H]1CC[C@H](C(F)(F)F)CC1 (single isomer, unassigned) [Example 6B, (R)-2-methyl-3-oxo-N-((S or R)-(trans-4-(trifluoromethyl)cyclo-hexyl)(3,4,5-tri-fluorophenyl)methyl) piperazine-1-carboxamide] |
| 112 nM | C[C@@H]1C(=O)NCCN1C(=O)NC(c1ccc(F)c(Cl)c1)[C@@H]1C[C@@H]2[C@H](C1)C2(F)F (single isomer, unassigned) [Example 7A, (2R)-N-((R or S)-(3-chloro-4-fluoro-phenyl)((1R,3s,5S)-6,6-difluoro-bicyclo[3.1.0]hexan-3-yl)methyl)-2-methyl-3-oxo-piperazine-1-carboxamide] |
| 11.7 nM | C[C@@H]1C(=O)NCCN1C(=O)NC(c1ccc(F)c(Cl)c1)[C@@H]1C[C@@H]2[C@H](C1)C2(F)F (single isomer, unassigned) [Example 7B, (2R)-N-((S or R)-(3-chloro-4-fluoro-phenyl)((1R,3s,5S)-6,6-difluoro-bicyclo[3.1.0]hexan-3-yl)methyl)-2-methyl-3-oxo-piperazine-1-carboxamide] |
| 244 nM | C[C@@H]1C(=O)NCCN1C(=O)NC(c1ccc(F)c(F)c1)[C@H]1CC[C@H](C(F)(F)F)CC1 (single isomer, unassigned) [Example 8A, (2R)-N-((R or S)-(3,4-difluoro-phenyl)(trans-4-(trifluoromethyl)cyclo-hexyl)methyl)-2-methyl-3-oxo-piperazine-1-carboxamide] |
| 13.2 nM | C[C@@H]1C(=O)NCCN1C(=O)NC(c1ccc(F)c(F)c1)[C@H]1CC[C@H](C(F)(F)F)CC1 (single isomer, unassigned) [Example 8B, (2R)-N-((S or R)-(3,4-difluoro-phenyl)(trans-4-(trifluoromethyl)cyclo-hexyl)methyl)-2-methyl-3-oxo-piperazine-1-carboxamide] |
| 46.8 nM | C[C@@H]1C(=O)NCCN1C(=O)NC(c1ccc(F)c(Cl)c1F)[C@H]1CC[C@H](C(F)(F)F)CC1 (single isomer, unassigned) [Example 9A, (2R)-N-((R or S)-(3-chloro-2,4-difluoro-phenyl)(trans-4-(trifluoromethyl)cyclo-hexyl)methyl)-2-methyl-3-oxo-piperazine-1-carboxamide] |
| 0.8 nM | C[C@@H]1C(=O)NCCN1C(=O)NC(c1ccc(F)c(Cl)c1F)[C@H]1CC[C@H](C(F)(F)F)CC1 (single isomer, unassigned) [Example 9B, (2R)-N-((S or R)-(3-chloro-2,4-difluoro-phenyl)(trans-4-(trifluoromethyl)cyclo-hexyl)methyl)-2-methyl-3-oxo-piperazine-1-carboxamide] |
| 311 nM | O=C1CN(C(=O)NC(c2ccc(F)c(Cl)c2F)[C@H]2CC[C@H](C(F)(F)F)CC2)CCN1 (single isomer, unassigned) [Example 10A, N-((R or S)-(3-chloro-2,4-difluoro-phenyl)(trans-4-(trifluoromethyl)cyclo-hexyl)methyl)-3-oxopiperazine-1-carboxamide] |
| 3.87 nM | O=C1CN(C(=O)NC(c2ccc(F)c(Cl)c2F)[C@H]2CC[C@H](C(F)(F)F)CC2)CCN1 (single isomer, unassigned) [Example 10B, N-((S or R)-(3-chloro-2,4-di-fluorophenyl)(trans-4-(trifluoromethyl)-cyclohexyl)methyl)-3-oxopiperazine-1-carboxamide] |
| 870 nM | C[C@@H]1C(=O)NCCN1C(=O)NC(c1ccc(F)c(Cl)c1F)[C@@H]1C[C@@H]2[C@H](C1)C2(F)F (single isomer, unassigned) [Example 11A, (R)-N-((R or S)-(3-chloro-2,4-difluoro-phenyl)((1R,3s,5S)-6,6-difluoro-bicyclo[3.1.0]hexan-3-yl)methyl)-2-methyl-3-oxo-piperazine-1-carboxamide] |
| 4.14 nM | C[C@@H]1C(=O)NCCN1C(=O)NC(c1ccc(F)c(Cl)c1F)[C@@H]1C[C@@H]2[C@H](C1)C2(F)F (single isomer, unassigned) [Example 11B, (R)-N-((S or R)-(3-chloro-2,4-difluoro-phenyl)((1R,3s,5S)-6,6-difluoro-bicyclo[3.1.0]hexan-3-yl)methyl)-2-methyl-3-oxo-piperazine-1-carboxamide] |
| 343 nM | O=C1CN(C(=O)NC(c2ccc(F)c(Cl)c2)C23CCC(C(F)(F)F)(CC2)CC3)CCN1 (single isomer, unassigned) [Example 12A, N-((R or S)-(3-chloro-4-fluoro-phenyl)(4-(trifluoro-methyl)bicyclo[2.2.2]octan-1-yl)methyl)-3-oxopiperazine-1-carboxamide] |
| 11.5 nM | O=C1CN(C(=O)NC(c2ccc(F)c(Cl)c2)C23CCC(C(F)(F)F)(CC2)CC3)CCN1 (single isomer, unassigned) [Example 12B, N-((S or R)-(3-chloro-4-fluoro-phenyl)(4-(trifluoro-methyl)bicyclo[2.2.2]octan-1-yl)methyl)-3-oxopiperazine-1-carboxamide] |
